Consider 20 compounds from PubChem BioAssay AID192 (DTP/NCI, 2004).

This test has as its system BDF1 mice, B16 melanoma ip, median survival T/C. Kind of test: NCI In Vivo Anticancer Drug Screen. Data for tumor model B16 Melanoma (intraperitoneal) in B6D2F1 (BDF1) mice. The conditions noted are these: endpoint: median survival time, higher = longer survival. In outline: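 Antitumor activity is assessed in mice bearing a transplanted tumor, with survival or tumor size compared against vehicle-dosed controls and expressed as T/C.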

[1] abbreviates: dose: 50.0 mg/kg/injection, schedule: Q01DX009 (ip), vehicle: saline with Tween-80.
Setting [2] is: dose: 50.0 mg/kg/injection, schedule: Q04DX003 (ip), vehicle: saline with Tween-80.
[3] abbreviates: dose: 100.0 mg/kg/injection, schedule: Q01DX009 (ip), vehicle: saline with Tween-80.
Where [4] appears, read: dose: 200.0 mg/kg/injection, schedule: Q01DX009 (ip), vehicle: saline with Tween-80.
Setting [5] is: dose: 6.25 mg/kg/injection, schedule: Q01DX009 (ip), vehicle: saline with Tween-80.
The mark [6] stands for this setting: dose: 50.0 mg/kg/injection, schedule: Q01DX009 (ip), vehicle: saline.
[7] abbreviates: dose: 25.0 mg/kg/injection, schedule: Q01DX009 (ip), vehicle: saline with Tween-80.
Where [8] appears, read: dose: 12.5 mg/kg/injection, schedule: Q01DX009 (ip), vehicle: saline with Tween-80.
Where [9] appears, read: dose: 100.0 mg/kg/injection, schedule: Q01DX009 (ip), vehicle: Klucel (hydroxypropylcellulose) (HPC).
The mark [10] stands for this setting: dose: 200.0 mg/kg/injection, schedule: Q01DX009 (ip), vehicle: Klucel (hydroxypropylcellulose) (HPC).
Where [11] appears, read: dose: 400.0 mg/kg/injection, schedule: Q01DX009 (ip), vehicle: Klucel (hydroxypropylcellulose) (HPC).

Several values for one entry are separate records, joined by “and”; a condition that tells them apart may be missing. Identical values can stand only once. Inconclusive results and toxic doses are left out. Peptide text beside a SMILES is read from it. * marks the point of attachment. Boc = CC(C)(C)OC(=O)*

Consider `OC(CCCCl)CC(O)(C(F)(F)F)C(F)(F)F` (stereo not drawn), for which the T/C reads like this: under setting [1], 111 % of control; under setting [2], 112 % of control; under setting [3], 102 % of control; (dose: 100.0 mg/kg/injection, schedule: Q04DX003 (ip), vehicle: saline with Tween-80) 115 % of control; under setting [4], 108 % of control; (dose: 200.0 mg/kg/injection, schedule: Q04DX003 (ip), vehicle: saline with Tween-80) 120 % of control.
`O=C(C=C(C(F)(F)F)C(F)(F)F)c1cccc(S(=O)(=O)F)c1`: the T/C runs as follows: (dose: 1.56 mg/kg/injection, schedule: Q01DX009 (ip), vehicle: saline with Tween-80) 86 % of control; (dose: 3.13 mg/kg/injection, schedule: Q01DX009 (ip), vehicle: saline with Tween-80) 93 % of control; under setting [5], 89 % of control; (dose: 8.0 mg/kg/injection, schedule: Q04DX003 (ip), vehicle: saline) 105 % of control; (dose: 12.0 mg/kg/injection, schedule: Q04DX003 (ip), vehicle: saline) 105 % of control; (dose: 18.0 mg/kg/injection, schedule: Q04DX003 (ip), vehicle: saline) 110 % of control.
As for `CCCCCOC(CN)C(Cl)(Cl)Cl` (stereo not drawn), the T/C by setting is: (dose: 12.5 mg/kg/injection, schedule: Q01DX009 (ip), vehicle: saline) 93 % of control; (dose: 25.0 mg/kg/injection, schedule: Q01DX009 (ip), vehicle: saline) 100 % of control; under setting [6], 102 % of control.
`Cc1c2ccnc(-c3ccccc3)c2cc2c1[nH]c1ccccc12`: the T/C is 115 % of control under setting [7]; 104 % of control under setting [1]; 94 % of control and 96 % of control under setting [3].
For the compound `COc1cc2c(c(OC)c1OC)-c1ccc(OC)c(=O)cc1C(NC(=O)COc1ccccc1)CC2` (stereo not drawn), the T/C (dose: 1.25 mg/kg/injection, schedule: Q01DX009 (ip), vehicle: Klucel (hydroxypropylcellulose) (HPC)) is 175 % of control and the T/C (dose: 2.5 mg/kg/injection, schedule: Q01DX009 (ip), vehicle: Klucel (hydroxypropylcellulose) (HPC)) is 188 % of control.
For `CCOC(=O)CCCN(c1ccccc1CC(=O)OCC)S(C)(=O)=O`, the T/C was 96 % of control (dose: 100.0 mg/kg/injection, schedule: Q04DX003 (ip), vehicle: Klucel (hydroxypropylcellulose) (HPC)); 104 % of control (dose: 200.0 mg/kg/injection, schedule: Q04DX003 (ip), vehicle: Klucel (hydroxypropylcellulose) (HPC)); 96 % of control (dose: 400.0 mg/kg/injection, schedule: Q04DX003 (ip), vehicle: Klucel (hydroxypropylcellulose) (HPC)).
`CC(C)(C)OC(=O)NCC(=O)NCC(=O)O` (Boc-Gly-Gly-OH): the T/C by setting is: under setting [6], 94 % of control; (dose: 100.0 mg/kg/injection, schedule: Q01DX009 (ip), vehicle: saline) 96 % of control.
With `CCCC(C(CC)CN(C)C)N(C)C` (stereo not drawn), the T/C reads like this: under setting [8], 90 % of control; under setting [7], 96 % of control; under setting [1], 94 % of control.
Consider `OC1CCCC2CCCNC12` (stereo not drawn), for which the T/C is 100 % of control (dose: 3.12 mg/kg/injection, schedule: Q01DX009 (ip), vehicle: saline with Tween-80); 108 % of control under setting [5]; 99 % of control under setting [8]; 96 % of control under setting [7]; 96 % of control under setting [1].
For `CC(=O)Nc1cc(F)c([N+](=O)[O-])cc1[N+](=O)[O-]`, the T/C by setting is: (dose: 0.63 mg/kg/injection, schedule: Q01DX009 (ip), vehicle: saline with Tween-80) 104 % of control; (dose: 1.25 mg/kg/injection, schedule: Q01DX009 (ip), vehicle: saline with Tween-80) 90 % of control; (dose: 2.5 mg/kg/injection, schedule: Q01DX009 (ip), vehicle: saline with Tween-80) 104 % of control.
For the compound `CCCCN(C)/N=N/c1[nH]ncc1C(=O)OCC`, the T/C by setting is: (dose: 78.7 mg/kg/injection, schedule: Q01DX009 (ip), vehicle: carboxymethylcellulose (CMC)) 109 % of control; (dose: 118.0 mg/kg/injection, schedule: Q01DX009 (ip), vehicle: carboxymethylcellulose (CMC)) 118 % of control; (dose: 177.0 mg/kg/injection, schedule: Q01DX009 (ip), vehicle: carboxymethylcellulose (CMC)) 118 % of control; (dose: 266.0 mg/kg/injection, schedule: Q01DX009 (ip), vehicle: carboxymethylcellulose (CMC)) 109 % of control.
As for `Cc1c(O)ccc(=O)n1O`, the T/C is 97 % of control (dose: 40.0 mg/kg/injection, schedule: Q01DX009 (ip), vehicle: saline with Tween-80); 101 % of control and 102 % of control and 111 % of control (dose: 80.0 mg/kg/injection, schedule: Q01DX009 (ip), vehicle: saline with Tween-80); 94 % of control (2×) and 111 % of control (dose: 160.0 mg/kg/injection, schedule: Q01DX009 (ip), vehicle: saline with Tween-80); 97 % of control (dose: 320.0 mg/kg/injection, schedule: Q01DX009 (ip), vehicle: saline with Tween-80).
Consider `CCCCCCCCCC(=O)CCC`, for which the T/C runs as follows: under setting [9], 100 % of control; under setting [10], 111 % of control; under setting [11], 95 % of control.
Turning to `CC(Cc1ccc(O)c(O)c1)C(C)Cc1ccc(O)c(O)c1` (stereo not drawn), the T/C by setting is: (dose: 750.0 mg/kg/injection, schedule: Q01DX009 (oral), vehicle: saline) 100 % of control; (dose: 1500.0 mg/kg/injection, schedule: Q01DX009 (oral), vehicle: saline) 97 % of control.
For `O=C(NC1CCCCC1)OCc1c(COC(=O)NC2CCCCC2)c(-c2ccc(Cl)c(Cl)c2)n2c1CCC2`, the T/C was 169 % of control under setting [8]; 214 % of control under setting [7]; 107 % of control (dose: 25.0 mg/kg/injection, schedule: Q01DX009 (oral), vehicle: saline with Tween-80); 290 % of control under setting [1]; 102 % of control (dose: 50.0 mg/kg/injection, schedule: Q01DX009 (oral), vehicle: saline with Tween-80); 304 % of control under setting [3]. Moreover, the T/C is, setting by setting: (dose: 100.0 mg/kg/injection, schedule: Q01DX009 (oral), vehicle: saline with Tween-80) 106 % of control; under setting [4], 153 % of control; (dose: 200.0 mg/kg/injection, schedule: Q01DX009 (oral), vehicle: saline with Tween-80) 107 % of control; (dose: 400.0 mg/kg/injection, schedule: Q01DX009 (ip), vehicle: saline with Tween-80) 91 % of control; (dose: 400.0 mg/kg/injection, schedule: Q01DX009 (oral), vehicle: saline with Tween-80) 106 % of control; (dose: 800.0 mg/kg/injection, schedule: Q01DX009 (oral), vehicle: saline with Tween-80) 102 % of control.
In the case of `c1ccc([Te][Te]c2ccccc2)cc1`, the T/C was 123 % of control (dose: 3.0 mg/kg/injection, schedule: Q01DX009 (ip), vehicle: saline with Tween-80) and 123 % of control (dose: 6.0 mg/kg/injection, schedule: Q01DX009 (ip), vehicle: saline with Tween-80).
With `CCCCC1(CC)COC(C)(c2ccccc2)OC1` (stereo not drawn), the T/C runs as follows: (dose: 75.0 mg/kg/injection, schedule: Q01DX009 (ip), vehicle: saline with Tween-80) 108 % of control; (dose: 150.0 mg/kg/injection, schedule: Q01DX009 (ip), vehicle: saline with Tween-80) 106 % of control; (dose: 300.0 mg/kg/injection, schedule: Q01DX009 (ip), vehicle: saline with Tween-80) 98 % of control.
Consider `CCOC(=O)/C=C/c1c[nH]c(C(=O)OCC)c1`, for which the T/C is, setting by setting: (dose: 50.0 mg/kg/injection, schedule: Q01DX009 (ip), vehicle: Klucel (hydroxypropylcellulose) (HPC)) 102 % of control; under setting [9], 96 % of control; under setting [10], 99 % of control; under setting [11], 98 % of control.
Regarding `C=C1CCN(c2ccc([N+](=O)[O-])cc2)C1=O`, the T/C was 97 % of control (dose: 4.0 mg/kg/injection, schedule: Q01DX009 (ip), vehicle: saline + alcohol); 107 % of control (dose: 8.0 mg/kg/injection, schedule: Q01DX009 (ip), vehicle: saline + alcohol); 98 % of control (dose: 16.0 mg/kg/injection, schedule: Q01DX009 (ip), vehicle: saline + alcohol); 89 % of control (dose: 32.0 mg/kg/injection, schedule: Q01DX009 (ip), vehicle: saline + alcohol); 95 % of control (dose: 64.0 mg/kg/injection, schedule: Q01DX009 (ip), vehicle: saline + alcohol).
On to `COc1ccc(NC2=CC(C)(C(=O)O)OC2=O)cc1` (stereo not drawn), for which the T/C was 93 % of control (dose: 12.5 mg/kg/injection, schedule: Q04DX003 (ip), vehicle: saline with Tween-80); 102 % of control (dose: 25.0 mg/kg/injection, schedule: Q04DX003 (ip), vehicle: saline with Tween-80); 100 % of control under setting [2].
